Where “and” joins values, the source holds several entries; their conditions need not be identical. Identical values can stand only once. Inconclusive results and toxic doses are left out. How the source made its calls: active means survival T/C of 150% or more; inactive means T/C below 125% in these data.
Tested on: CD2F1 mice, L1210 leukemia ip, survival T/C
Experiment: NCI In Vivo Anticancer Drug Screen. Data for tumor model L1210 Leukemia (intraperitoneal) in CD2F1 (CDF1) mice
Settings: endpoint: mean survival time, higher = longer survival
Procedure, shortened: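 Each value reflects a quotient of treated over vehicle control outcomes in mice with a transplanted tumor.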

[1] = dose: 50.0 mg/kg/injection, schedule: Q01DX009 (ip), vehicle: saline with Tween-80
[2] = dose: 100.0 mg/kg/injection, schedule: Q01DX009 (ip), vehicle: saline with Tween-80
[3] = dose: 200.0 mg/kg/injection, schedule: Q01DX009 (ip), vehicle: saline with Tween-80
[4] = dose: 25.0 mg/kg/injection, schedule: Q01DX009 (ip), vehicle: saline
[5] = dose: 50.0 mg/kg/injection, schedule: Q01DX009 (ip), vehicle: saline
[6] = dose: 100.0 mg/kg/injection, schedule: Q01DX001 (ip), vehicle: saline
[7] = dose: 100.0 mg/kg/injection, schedule: Q01DX009 (ip), vehicle: saline
[8] = dose: 100.0 mg/kg/injection, schedule: Q04DX003 (ip), vehicle: saline with Tween-80
[9] = dose: 200.0 mg/kg/injection, schedule: Q04DX003 (ip), vehicle: saline with Tween-80
[10] = dose: 100.0 mg/kg/injection, schedule: Q04DX002 (ip), vehicle: saline with Tween-80
[11] = dose: 200.0 mg/kg/injection, schedule: Q04DX002 (ip), vehicle: saline with Tween-80
[12] = dose: 400.0 mg/kg/injection, schedule: Q04DX002 (ip), vehicle: saline with Tween-80
[13] = dose: 100.0 mg/kg/injection, schedule: Q01DX001 (ip), vehicle: saline with Tween-80
[14] = dose: 200.0 mg/kg/injection, schedule: Q01DX001 (ip), vehicle: saline with Tween-80
[15] = dose: 400.0 mg/kg/injection, schedule: Q01DX001 (ip), vehicle: saline with Tween-80

Measured: T/C

CC(C)/C=C\C=C\C(C)C
inactive: [1] 96 % of control | [2] 103 % of control | [3] 96 % of control

CC(Cl)(C(Cl)Cl)C(F)(F)F (centres undefined)
inactive: dose: 25.0 mg/kg/injection, schedule: Q01DX001 (ip), vehicle: saline 102 % of control | [4] 98 % of control | dose: 50.0 mg/kg/injection, schedule: Q01DX001 (ip), vehicle: saline 107 % of control | [5] 98 % of control | [6] 104 % of control and 108 % of control | [7] 98 % of control

CCCCCCCCCCC(O)CCCCCCCCCC
inactive: [8] 100 % of control | [9] 90 % of control | dose: 400.0 mg/kg/injection, schedule: Q04DX003 (ip), vehicle: saline with Tween-80 90 % of control

c1ccc2cc(N=NNc3ccc4ccccc4c3)ccc2c1
inactive: [1] 94 % of control | [2] 98 % of control | [8] 95 % of control | [3] 100 % of control | [9] 92 % of control

C=CCN(C)N=Nc1ccc(NC(N)=O)cc1
inactive: dose: 2.34 mg/kg/injection, schedule: Q01DX009 (ip), vehicle: Klucel (hydroxypropylcellulose) (HPC) 100 % of control and 104 % of control | dose: 4.68 mg/kg/injection, schedule: Q01DX009 (ip), vehicle: Klucel (hydroxypropylcellulose) (HPC) 104 % of control and 107 % of control | dose: 9.37 mg/kg/injection, schedule: Q01DX009 (ip), vehicle: Klucel (hydroxypropylcellulose) (HPC) 110 % of control | dose: 18.75 mg/kg/injection, schedule: Q01DX009 (ip), vehicle: Klucel (hydroxypropylcellulose) (HPC) 120 % of control | dose: 75.0 mg/kg/injection, schedule: Q01DX009 (ip), vehicle: Klucel (hydroxypropylcellulose) (HPC) 98 % of control

C=C1C(=O)OCC1(C(=O)OCC)C(=O)OCC
inactive: dose: 5.0 mg/kg/injection, schedule: Q01DX001 (ip), vehicle: saline 100 % of control | dose: 10.0 mg/kg/injection, schedule: Q01DX001 (ip), vehicle: saline 100 % of control | dose: 20.0 mg/kg/injection, schedule: Q01DX001 (ip), vehicle: saline 100 % of control | dose: 40.0 mg/kg/injection, schedule: Q01DX001 (ip), vehicle: saline 108 % of control

CCCCCCCCC(=O)N1CCOCC1
inactive: [2] 108 % of control | dose: 150.0 mg/kg/injection, schedule: Q04DX003 (ip), vehicle: saline 96 % of control

CSc1nc(C)cc(=O)[nH]1
inactive: [10] 94 % of control | [11] 97 % of control | [12] 90 % of control

CC(=O)Oc1cc2c(=O)oc3cc(OC(C)=O)c(=O)oc3c2c(OC(C)=O)c1OC(C)=O
inactive: [6] 98 % of control | dose: 200.0 mg/kg/injection, schedule: Q01DX001 (ip), vehicle: saline 101 % of control | dose: 400.0 mg/kg/injection, schedule: Q01DX001 (ip), vehicle: saline 110 % of control

COc1cc([N+](=O)[O-])ccc1NC(=O)OC/C=C/c1ccccc1
inactive: [2] 92 % of control | [3] 91 % of control

CN(N)c1nc2c(=O)[nH]cnc2n1C1OC(CO)C(O)C1O (centres undefined)
inactive: dose: 12.5 mg/kg/injection, schedule: Q01DX005 (ip), vehicle: water 104 % of control | dose: 25.0 mg/kg/injection, schedule: Q01DX005 (ip), vehicle: water 101 % of control | dose: 50.0 mg/kg/injection, schedule: Q01DX005 (ip), vehicle: water 95 % of control | dose: 100.0 mg/kg/injection, schedule: Q01DX005 (ip), vehicle: water 103 % of control | dose: 200.0 mg/kg/injection, schedule: Q01DX005 (ip), vehicle: water 95 % of control

C=CCNC(=S)n1cnc(N)n1
inactive: dose: 25.0 mg/kg/injection, schedule: Q04DX002 (ip), vehicle: saline with Tween-80 104 % of control | dose: 50.0 mg/kg/injection, schedule: Q04DX002 (ip), vehicle: saline with Tween-80 96 % of control | [10] 104 % of control and 105 % of control

CCCNC(C)(C)C(SS)c1ccc(C(F)(F)F)cc1 (centres undefined)
inactive: dose: 200.0 mg/kg/injection, schedule: Q04DX003 (ip), vehicle: other 100 % of control | dose: 400.0 mg/kg/injection, schedule: Q04DX003 (ip), vehicle: other 90 % of control

NC(=O)c1cn(C2CC(O)C(CO)O2)c2ncnc(N)c12 (centres undefined)
inactive: dose: 0.03 mg/kg/injection, schedule: Q01DX009 (ip), vehicle: water 93 % of control | dose: 0.06 mg/kg/injection, schedule: Q01DX009 (ip), vehicle: water 93 % of control | dose: 0.13 mg/kg/injection, schedule: Q01DX009 (ip), vehicle: water 94 % of control | dose: 0.25 mg/kg/injection, schedule: Q01DX009 (ip), vehicle: water 98 % of control | dose: 0.5 mg/kg/injection, schedule: Q01DX009 (ip), vehicle: water 102 % of control | dose: 1.0 mg/kg/injection, schedule: Q01DX009 (ip), vehicle: water 98 % of control | dose: 2.0 mg/kg/injection, schedule: Q01DX009 (ip), vehicle: water 100 % of control | dose: 4.0 mg/kg/injection, schedule: Q01DX009 (ip), vehicle: water 104 % of control | dose: 5.0 mg/kg/injection, schedule: Q01DX009 (ip), vehicle: water 108 % of control | dose: 8.0 mg/kg/injection, schedule: Q01DX009 (ip), vehicle: water 100 % of control | dose: 10.0 mg/kg/injection, schedule: Q01DX009 (ip), vehicle: water 99 % of control | dose: 16.0 mg/kg/injection, schedule: Q01DX009 (ip), vehicle: water 98 % of control | dose: 20.0 mg/kg/injection, schedule: Q01DX009 (ip), vehicle: water 104 % of control | dose: 40.0 mg/kg/injection, schedule: Q01DX009 (ip), vehicle: water 101 % of control | dose: 80.0 mg/kg/injection, schedule: Q01DX009 (ip), vehicle: water 103 % of control | dose: 160.0 mg/kg/injection, schedule: Q01DX009 (ip), vehicle: water 104 % of control

COc1ccc(NC(=O)Oc2c(C)cccc2C)cc1
inactive: [10] 97 % of control | [11] 97 % of control | [12] 101 % of control

CC(=O)n1c2ccccc2c2ccccc21
inactive: [1] 106 % of control | [2] 109 % of control | [3] 106 % of control

O=c1[nH]c(=O)c2nc(-c3cccnc3)cnc2[nH]1
inactive: dose: 12.5 mg/kg/injection, schedule: Q01DX009 (ip), vehicle: saline 98 % of control and 103 % of control | [4] 101 % of control and 102 % of control | [5] 93 % of control and 104 % of control | [7] 98 % of control and 110 % of control | dose: 200.0 mg/kg/injection, schedule: Q01DX009 (ip), vehicle: saline 101 % of control and 110 % of control | dose: 400.0 mg/kg/injection, schedule: Q01DX009 (ip), vehicle: saline 114 % of control and 102 % of control

COc1cc2c(c(OC)c1O)-c1ccc(OC)c(=O)cc1[C@@H](NC(C)=O)CC2
inactive: dose: 1.25 mg/kg/injection, schedule: Q01DX005 (ip), vehicle: Klucel (hydroxypropylcellulose) (HPC) 103 % of control | dose: 2.5 mg/kg/injection, schedule: Q01DX005 (ip), vehicle: Klucel (hydroxypropylcellulose) (HPC) 104 % of control | dose: 3.12 mg/kg/injection, schedule: Q01DX009 (ip), vehicle: saline 118 % of control | dose: 5.0 mg/kg/injection, schedule: Q01DX005 (ip), vehicle: Klucel (hydroxypropylcellulose) (HPC) 110 % of control | dose: 20.0 mg/kg/injection, schedule: Q01DX005 (ip), vehicle: Klucel (hydroxypropylcellulose) (HPC) 121 % of control | dose: 40.0 mg/kg/injection, schedule: Q01DX005 (ip), vehicle: Klucel (hydroxypropylcellulose) (HPC) 110 % of control

OCC1OC(n2ncc3c2N=CN2CCN=C32)C(O)C1O (centres undefined)
inactive: dose: 12.5 mg/kg/injection, schedule: Q01DX009 (ip), vehicle: water 95 % of control | dose: 25.0 mg/kg/injection, schedule: Q01DX009 (ip), vehicle: water 98 % of control | dose: 50.0 mg/kg/injection, schedule: Q01DX009 (ip), vehicle: water 102 % of control | dose: 100.0 mg/kg/injection, schedule: Q01DX009 (ip), vehicle: water 95 % of control | dose: 200.0 mg/kg/injection, schedule: Q01DX009 (ip), vehicle: water 95 % of control

C1CC2CCC3CCCC4CCC(C1)C2C34 (centres undefined)
inactive: [1] 98 % of control | [2] 98 % of control | [8] 98 % of control | [3] 100 % of control | [9] 102 % of control

CC(C)(C)C1CCC(S(=O)c2ccccc2)CC1 (centres undefined)
inactive: [13] 105 % of control | [10] 90 % of control | [14] 100 % of control | [11] 93 % of control | [15] 103 % of control | [12] 93 % of control

CCCCCCCCCCCCCCCCCCCOc1ccc(OCCCCCCCCCCCCCCCC)cc1
inactive: [13] 100 % of control | [14] 96 % of control | [15] 88 % of control
